Consider two molecules from ChEMBL document CHEMBL3098003, “Structure-based design of 2-aminopyridine oxazolidinones as potent and selective tankyrase inhibitors” (ACS Med Chem Lett, 2013).

The source made the active and inactive calls. The calls are words filed in the database; no cut-off is given here. Some results are limits rather than exact numbers.

In data set [1] the test system is Mus musculus. The data set is described as follows: Toxicity in athymic nude mouse assessed as diarrhea at 100 mg/kg, po bid for 8 days. The note with it: in vivo, 192 h. The arrangement: dose 100 mg/kg, route oral. It is filed as organism-based.
The test system of data set [2] is Mus musculus. The data set is described as follows: Toxicity in athymic nude mouse assessed as dehydration at 100 mg/kg, po bid for 8 days. The note with it: in vivo, 192 h. The arrangement: dose 100 mg/kg, route oral. It is filed as organism-based.
The test system of data set [3] is Mus musculus. The data set is described as follows: Toxicity in athymic nude mouse assessed as hunched posture at 100 mg/kg, po bid for 8 days. It is filed as organism-based. The arrangement: dose 100 mg/kg, route oral. The note with it: in vivo, 192 h.
Data set [4] deals with Mus musculus. The data set can be described thus: Toxicity in athymic nude mouse assessed as lethargy at 100 mg/kg, po bid for 8 days. It is filed as organism-based. The arrangement: dose 100 mg/kg, route oral. The note with it: in vivo, 192 h.
Data set [5] can be described thus: Cytotoxicity against human DLD1 cells. The note with it: DLD-1. It is filed as functional, cell-based.
Data set [6] is described as follows: Toxicity in po dosed athymic nude mouse administered bid for 8 days. It is filed as organism-based. The note with it: in vivo.
A short description of data set [7]: Terminal plasma concentration in athymic nude mouse xenografted with human DLD1 cells at 50 mg/kg, po bid for 3 days. In kind it is ADME, organism-based, DLD-1. The arrangement: dose 50 mg/kg, route oral. The note with it: read-out: Cp(T). (In general: Xenograft models place foreign cells or tissue in a host animal.)
The subject of data set [8] is Mus musculus. The data set can be described thus: In vivo inhibition of tankyrase-mediated Wnt gene transcription in tumor of athymic nude mouse xenografted with human DLD1 cells at 50 mg/kg, po bid for 3 days by STF assay. It is filed as functional, organism-based. The arrangement: dose 50 mg/kg. The note with it: DLD-1.
Another data set addresses Bile salt export pump (Homo sapiens, UniProt O95342). The data set can be described thus: Inhibition of BSEP (unknown origin).
Data set [9] has as its target Beta-1 adrenergic receptor (Homo sapiens, UniProt P08588). The data set is described as follows: Binding affinity to adrenergic beta1 receptor (unknown origin).
Data set [10] deals with Voltage-gated inwardly rectifying potassium channel KCNH2 (Homo sapiens, UniProt Q12809). The data set can be described thus: Inhibition of human ERG.
Data set [11] concerns the target Somatostatin receptor type 4 (Homo sapiens, UniProt P31391). The data set can be described thus: Binding affinity to SST4 receptor (unknown origin).
For a further data set, the target named is Substance-P receptor (Homo sapiens, UniProt P25103). The data set is described as follows: Binding affinity to NK1 receptor (unknown origin).
The target of data set [12] is Muscarinic acetylcholine receptor M1 (Homo sapiens, UniProt P11229). The data set is described as follows: Binding affinity to muscarinic M1 receptor (unknown origin).
For the next data set, the target named is Mu-type opioid receptor (Homo sapiens, UniProt P35372). The data set is described as follows: Binding affinity to mu opioid receptor (unknown origin).
In another data set the target is Histamine H1 receptor (Homo sapiens, UniProt P35367). The data set can be described thus: Binding affinity to histamine H1 receptor (unknown origin).
In data set [13] the target is C-C chemokine receptor type 2 (Homo sapiens, UniProt P41597). The data set can be described thus: Binding affinity to CCR2 (unknown origin).
The target of data set [14] is C-X-C chemokine receptor type 2 (Homo sapiens, UniProt P25025). The data set is described as follows: Binding affinity to CXCR2 (unknown origin).
In a further data set the target is Cannabinoid receptor 1 (Homo sapiens, UniProt P21554). The data set can be described thus: Binding affinity to CB1 receptor (unknown origin).
The target in data set [15] is 5-hydroxytryptamine receptor 1A (Homo sapiens, UniProt P08908). The data set can be described thus: Binding affinity to 5-HT1A receptor (unknown origin).
Data set [16] addresses Alpha-1A adrenergic receptor (Homo sapiens, UniProt P35348). The data set can be described thus: Binding affinity to adrenergic alpha1A receptor (unknown origin).
Data set [17] has as its target Poly [ADP-ribose] polymerase tankyrase-2 (Homo sapiens, UniProt Q9H2K2). The data set is described as follows: Inhibition of recombinant TNKS2 (unknown origin) after 60 mins by spectrophotometric analysis.
Data set [18] concerns Mus musculus. The data set can be described thus: In vivo inhibition of tankyrase-mediated TCF7 gene expression in tumor of athymic nude mouse xenografted with human DLD1 cells at 200 mg/kg, po bid for 3 days by STF assay. In kind it is functional, organism-based. The arrangement: dose 200 mg/kg. The note with it: DLD-1.
The subject of data set [19] is Mus musculus. The data set is described as follows: In vivo inhibition of tankyrase-mediated axin2 gene expression in tumor of athymic nude mouse xenografted with human DLD1 cells at 200 mg/kg, po bid for 3 days by STF assay. It is filed as functional, organism-based. The arrangement: dose 200 mg/kg. The note with it: DLD-1.
The nature of data set [20]: Terminal plasma concentration in athymic nude mouse xenografted with human DLD1 cells at 200 mg/kg, po bid for 3 days. In kind it is ADME, organism-based, DLD-1. The arrangement: dose 200 mg/kg, route oral. The note with it: read-out: Cp(T).
Data set [21] is described as follows: Intrinsic clearance in human liver microsomes. In kind it is ADME. The note with it: read-out: CLH. For orientation: Liver microsomes are a subcellular fraction often used to study metabolism.

Beta-1 adrenergic receptor, sequence (P08588 whole entry): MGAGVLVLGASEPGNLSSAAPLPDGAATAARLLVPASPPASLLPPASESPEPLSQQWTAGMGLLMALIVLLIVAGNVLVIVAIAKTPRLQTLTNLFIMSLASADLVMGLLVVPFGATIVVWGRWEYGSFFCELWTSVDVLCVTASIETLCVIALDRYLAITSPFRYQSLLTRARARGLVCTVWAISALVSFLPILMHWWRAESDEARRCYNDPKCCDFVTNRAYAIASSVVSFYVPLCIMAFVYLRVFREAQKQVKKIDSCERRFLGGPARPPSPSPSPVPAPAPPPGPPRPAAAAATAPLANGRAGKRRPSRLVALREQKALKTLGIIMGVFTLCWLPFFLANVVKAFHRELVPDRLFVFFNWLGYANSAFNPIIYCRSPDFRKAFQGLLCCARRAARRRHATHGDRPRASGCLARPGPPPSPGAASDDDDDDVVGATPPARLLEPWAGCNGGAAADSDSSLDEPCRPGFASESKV
Muscarinic acetylcholine receptor M1, sequence (P11229 whole entry): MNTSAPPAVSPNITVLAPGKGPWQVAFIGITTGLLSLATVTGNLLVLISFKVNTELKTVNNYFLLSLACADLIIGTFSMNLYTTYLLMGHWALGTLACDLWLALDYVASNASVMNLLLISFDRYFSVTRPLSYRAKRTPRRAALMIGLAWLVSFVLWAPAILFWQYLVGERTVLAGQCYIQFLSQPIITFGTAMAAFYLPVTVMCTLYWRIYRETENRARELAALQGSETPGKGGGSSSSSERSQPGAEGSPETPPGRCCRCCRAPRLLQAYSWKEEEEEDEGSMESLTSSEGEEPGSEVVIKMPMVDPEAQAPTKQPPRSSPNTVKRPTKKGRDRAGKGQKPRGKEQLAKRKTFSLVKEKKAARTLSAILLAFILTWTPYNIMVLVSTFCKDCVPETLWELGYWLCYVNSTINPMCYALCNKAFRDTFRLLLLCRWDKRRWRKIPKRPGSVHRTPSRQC
Substance-P receptor, sequence (P25103 whole entry): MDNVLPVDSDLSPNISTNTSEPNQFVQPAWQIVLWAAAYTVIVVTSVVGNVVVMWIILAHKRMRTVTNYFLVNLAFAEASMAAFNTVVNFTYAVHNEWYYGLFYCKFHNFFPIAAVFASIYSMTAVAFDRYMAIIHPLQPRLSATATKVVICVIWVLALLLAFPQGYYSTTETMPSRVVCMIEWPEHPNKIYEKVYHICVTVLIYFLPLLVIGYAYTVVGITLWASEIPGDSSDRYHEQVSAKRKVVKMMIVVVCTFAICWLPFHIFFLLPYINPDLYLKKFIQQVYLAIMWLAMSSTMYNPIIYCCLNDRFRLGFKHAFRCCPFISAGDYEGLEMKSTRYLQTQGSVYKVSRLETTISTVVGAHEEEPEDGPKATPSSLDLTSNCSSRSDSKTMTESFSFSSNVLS
Cannabinoid receptor 1, sequence (P21554 whole entry): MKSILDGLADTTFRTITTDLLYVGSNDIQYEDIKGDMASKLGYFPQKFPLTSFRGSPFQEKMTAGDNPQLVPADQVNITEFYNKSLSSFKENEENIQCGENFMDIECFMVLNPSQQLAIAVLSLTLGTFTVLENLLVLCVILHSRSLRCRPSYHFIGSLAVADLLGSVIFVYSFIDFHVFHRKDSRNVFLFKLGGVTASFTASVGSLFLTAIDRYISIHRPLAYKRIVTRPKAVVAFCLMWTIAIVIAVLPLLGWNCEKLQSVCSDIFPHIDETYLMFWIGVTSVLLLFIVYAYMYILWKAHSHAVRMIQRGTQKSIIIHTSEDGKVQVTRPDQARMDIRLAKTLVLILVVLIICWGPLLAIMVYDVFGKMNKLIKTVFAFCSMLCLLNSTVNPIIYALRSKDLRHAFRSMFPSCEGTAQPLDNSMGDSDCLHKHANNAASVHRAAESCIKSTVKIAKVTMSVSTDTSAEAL
5-hydroxytryptamine receptor 1A, sequence (P08908 whole entry): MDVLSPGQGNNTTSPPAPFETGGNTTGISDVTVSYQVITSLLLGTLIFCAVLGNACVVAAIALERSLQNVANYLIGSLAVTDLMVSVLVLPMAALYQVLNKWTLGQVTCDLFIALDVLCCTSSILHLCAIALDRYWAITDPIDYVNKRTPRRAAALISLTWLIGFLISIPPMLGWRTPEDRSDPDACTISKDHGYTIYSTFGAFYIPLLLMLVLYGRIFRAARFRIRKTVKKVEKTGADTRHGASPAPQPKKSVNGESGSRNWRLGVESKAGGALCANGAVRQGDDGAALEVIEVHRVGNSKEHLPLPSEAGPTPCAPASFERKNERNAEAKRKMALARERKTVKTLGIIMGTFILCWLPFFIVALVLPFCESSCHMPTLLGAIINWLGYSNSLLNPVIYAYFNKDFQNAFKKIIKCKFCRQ
C-C chemokine receptor type 2, sequence (P41597 whole entry): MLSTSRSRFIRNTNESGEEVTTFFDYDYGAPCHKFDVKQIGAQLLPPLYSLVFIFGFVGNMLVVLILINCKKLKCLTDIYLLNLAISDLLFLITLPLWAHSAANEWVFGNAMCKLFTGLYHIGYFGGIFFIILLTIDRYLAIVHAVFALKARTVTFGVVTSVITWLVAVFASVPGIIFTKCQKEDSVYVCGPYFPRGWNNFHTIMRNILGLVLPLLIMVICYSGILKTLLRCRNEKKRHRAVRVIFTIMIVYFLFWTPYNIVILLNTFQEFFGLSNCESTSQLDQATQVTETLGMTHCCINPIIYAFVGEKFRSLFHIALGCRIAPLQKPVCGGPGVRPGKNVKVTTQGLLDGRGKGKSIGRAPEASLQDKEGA
Mu-type opioid receptor, sequence (P35372 whole entry): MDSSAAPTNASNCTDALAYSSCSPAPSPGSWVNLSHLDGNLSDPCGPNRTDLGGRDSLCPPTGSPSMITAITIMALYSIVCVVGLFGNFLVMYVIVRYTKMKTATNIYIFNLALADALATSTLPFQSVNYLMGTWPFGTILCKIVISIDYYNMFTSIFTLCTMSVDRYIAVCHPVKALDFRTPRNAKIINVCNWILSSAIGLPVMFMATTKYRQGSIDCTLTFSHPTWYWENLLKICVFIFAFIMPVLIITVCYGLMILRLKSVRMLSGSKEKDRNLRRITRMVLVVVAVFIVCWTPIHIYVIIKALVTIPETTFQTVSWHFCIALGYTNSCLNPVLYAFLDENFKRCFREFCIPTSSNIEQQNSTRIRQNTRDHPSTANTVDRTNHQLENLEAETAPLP
Bile salt export pump, sequence (O95342 whole entry): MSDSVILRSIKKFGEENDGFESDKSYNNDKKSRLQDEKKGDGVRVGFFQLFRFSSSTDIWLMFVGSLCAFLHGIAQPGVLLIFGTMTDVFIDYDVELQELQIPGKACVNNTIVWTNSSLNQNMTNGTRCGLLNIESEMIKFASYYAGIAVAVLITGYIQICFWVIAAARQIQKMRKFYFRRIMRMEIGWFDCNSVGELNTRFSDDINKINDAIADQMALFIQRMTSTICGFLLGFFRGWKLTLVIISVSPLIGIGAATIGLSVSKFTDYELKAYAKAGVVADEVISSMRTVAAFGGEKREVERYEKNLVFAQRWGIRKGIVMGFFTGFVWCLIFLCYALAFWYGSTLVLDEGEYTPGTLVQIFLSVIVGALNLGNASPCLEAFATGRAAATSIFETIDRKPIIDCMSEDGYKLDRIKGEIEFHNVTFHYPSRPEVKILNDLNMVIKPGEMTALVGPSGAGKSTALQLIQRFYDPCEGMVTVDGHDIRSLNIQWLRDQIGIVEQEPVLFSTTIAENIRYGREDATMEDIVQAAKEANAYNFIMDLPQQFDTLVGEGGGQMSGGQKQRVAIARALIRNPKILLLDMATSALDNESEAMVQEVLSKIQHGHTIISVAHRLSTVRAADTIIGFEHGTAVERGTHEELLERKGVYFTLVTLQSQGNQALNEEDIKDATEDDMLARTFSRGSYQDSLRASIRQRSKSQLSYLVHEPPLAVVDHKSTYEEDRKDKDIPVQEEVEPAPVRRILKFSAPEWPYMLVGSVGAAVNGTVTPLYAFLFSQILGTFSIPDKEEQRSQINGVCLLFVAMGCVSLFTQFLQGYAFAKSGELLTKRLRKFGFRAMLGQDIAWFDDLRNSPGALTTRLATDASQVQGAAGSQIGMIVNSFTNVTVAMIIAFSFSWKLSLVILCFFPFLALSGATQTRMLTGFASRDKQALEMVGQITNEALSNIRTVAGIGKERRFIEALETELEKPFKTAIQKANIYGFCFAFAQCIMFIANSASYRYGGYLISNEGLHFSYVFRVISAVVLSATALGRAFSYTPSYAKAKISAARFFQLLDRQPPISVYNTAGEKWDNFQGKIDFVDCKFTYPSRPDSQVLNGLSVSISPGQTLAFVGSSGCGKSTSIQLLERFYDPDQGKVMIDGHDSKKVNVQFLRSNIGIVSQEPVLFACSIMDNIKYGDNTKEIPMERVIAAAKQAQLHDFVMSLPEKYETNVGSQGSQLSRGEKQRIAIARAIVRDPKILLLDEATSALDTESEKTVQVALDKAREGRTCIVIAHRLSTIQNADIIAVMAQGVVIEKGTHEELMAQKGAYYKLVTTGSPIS
Histamine H1 receptor, sequence (P35367 whole entry): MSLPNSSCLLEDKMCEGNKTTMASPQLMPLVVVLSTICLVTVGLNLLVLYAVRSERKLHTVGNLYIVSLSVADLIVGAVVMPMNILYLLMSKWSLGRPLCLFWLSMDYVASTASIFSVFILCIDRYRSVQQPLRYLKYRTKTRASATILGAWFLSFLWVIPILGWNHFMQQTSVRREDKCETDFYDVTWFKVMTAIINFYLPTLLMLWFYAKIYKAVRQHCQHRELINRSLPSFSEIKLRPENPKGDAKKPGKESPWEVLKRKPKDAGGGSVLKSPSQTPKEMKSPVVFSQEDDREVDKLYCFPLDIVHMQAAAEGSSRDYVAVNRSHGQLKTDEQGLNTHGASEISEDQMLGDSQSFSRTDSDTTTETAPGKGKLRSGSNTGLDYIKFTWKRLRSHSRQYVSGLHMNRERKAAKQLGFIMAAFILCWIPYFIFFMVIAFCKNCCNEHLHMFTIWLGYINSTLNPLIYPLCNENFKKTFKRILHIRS

In the case of `CC1(C)OC(=O)N([C@H]2CC[C@H](c3cnc(N)c(-c4ncccn4)c3)CC2)[C@H]1c1ccccc1`, the Activity result in the data set on Mus musculus [1], in the data set on Mus musculus [2], with Mus musculus [3] and in the data set with Mus musculus [4] was “Toxic” throughout. The half-inhibitory concentration (IC50) (as a rule, the concentration that inhibits the measured activity by half) in data set [5] is 3 µM; at Bile salt export pump, 11 µM; in data set [9], over 48.5 µM; in data set [10] it was 10.9 µM; in data set [11] it was over 48.5 µM; on Substance-P receptor it was over 48.5 µM. For the same molecule, the IC50 (in data set [12]; at Mu-type opioid receptor; on Histamine H1 receptor; in [13]; in data set [14]; at Cannabinoid receptor 1) was over 48.5 µM each time. Besides, the half-inhibitory concentration (IC50) in [15] is over 48.5 µM; in [16], over 48.5 µM; in data set [17] it was 0.002 µM. This molecule registered an MTD at 192 h in [6] of 50 mg/kg. For the same molecule, the concentration at 72 h in data set [7] turned out to be 0.12 µM. Further, the inhibition entry with Mus musculus [8] was “Active”.
On to `CC1(C)OC(=O)N(c2ccc(-c3cnc(N)c(-c4ncccn4)c3)cc2)[C@H]1c1ccccc1`, for which the inhibition entry with Mus musculus [18] and in the data set on Mus musculus [19] was “Active” throughout. In addition, the concentration at 72 h in data set [20] amounted to 22.1 µM. Besides, the microsomal CLint in data set [21] worked out at 33 µL/min/mg.
